Laboratory results as given in patent publication US20090215755A1, “USE OF A PYRAZOLE DERIVATIVE FOR PREPARING MEDICINAL PRODUCTS THAT ARE USEFUL IN THE PREVENTION AND TREATMENT OF DYSLIPIDAEMIAS AND OF DISEASES RELATED TO DYSLIPIDAEMIAS AND/OR TO OBESITY” (SANOFI-AVENTIS, priority 2003, published 2009).
Marks after values point to notes of the source that are not given here.

Columns and labels:
obese mice = assay: Action of rimonabant on blood lipid levels in obese mice (2 months of treatment); type: in vivo; settings: rimonabant 10 mg/kg/day oral
Protocol: The effect of a long-term (2 months) treatment with rimonabant was studied in mice having an established obesity.
The study was carried out in mice receiving either a normal diet or a fatty diet. Obesity developed in the mice receiving a fatty diet and it became stabilized after 5 months. The mice were then divided up into 3 groups:
group 1: maintenance of the fatty diet and oral treatment for 2 months with rimonabant at 10 mg/kg/day, in water with 0.1% of Tween 80 (vehicle);
group 2: maintenance of the fatty diet and administration of the vehicle (water+0.1% of Tween 80);
group 3: return to a normal diet and administration of the vehicle (water+0.1% of Tween 80);
group 4 consists of mice receiving a normal diet and the vehicle from the start.

obese patients [1] = assay: Clinical trial of rimonabant on the lipid parameters, 4 weeks of treatment, obese patients; type: in vivo, human; settings: for Improvement in metabolic syndrome / Weight loss / Decrease in triglycerides ≧10% / Increase in HDLc ≧10% / Blood glucose level: obese patients; for Improvement in metabolic syndrome: ATP III definition; for Weight loss: low-calorie diet; for Decrease in triglycerides ≧10% / Increase in HDLc ≧10%: share of patients; for Blood glucose level: signed values (change)
Protocol: A clinical trial was carried out for 4 weeks on 287 obese patients whose body mass index (BMI) was between 30 and 40. After having received the placebo for 2 weeks, the patients were randomized so as to receive doses of 5, 10 or 20 mg/day of rimonabant or the placebo.
There was a check-up visit 4 weeks after the end of the treatment.
For the duration of the study, the patients were asked to follow a low-calorie diet (deficit of 500 kcal/day).

[2] = test system: obese individuals with dyslipidaemias; assay: Rio Lipids clinical study, 12 months, obese individuals with dyslipidaemias; type: in vivo, human
Protocol: The Rio Lipids clinical study, carried out for 12 months in 1036 obese individuals with dyslipidaemias, compares the effect of rimonabant at a dose of 20 mg, versus a placebo product, in weight reduction, improvement in the lipid parameters and prevalence of metabolic syndrome. The treated group and the placebo group are subjected to a low-calorie diet.

obese fa/fa Zucker rats = assay: Effect of rimonabant on steatosis and steatohepatitis in obese rats; type: in vivo; settings: rimonabant 30 mg/kg/day oral, 2 months
Protocol: The effect of rimonabant on steatosis and steatohepatitis was studied in obese fa/fa Zucker rats.
For this study, 3 groups are formed: • thin rats/vehicle group: thin Zucker rats treated with the vehicle (water and 0.1% Tween 80); • obese rats/vehicle group: obese fa/fa Zucker rats treated with the vehicle (water and 0.1% Tween 80); • obese rats/rimonabant group: obese fa/fa Zucker rats treated orally for 2 months with rimonabant at 30 mg/kg/day, in the vehicle (water and 0.1% Tween 80).
After 2 months of treatment, the body weight and the weight of the liver are measured for each rat, and a histopathological analysis of the fat load in the livers is carried out.

obese patients [3] = settings: clinical studies, Le Fur 2003; Heshmati et al. 2001; cited from earlier work
[4] = group 1: obese mice kept on fatty diet
[5] = group 1: obese mice, fatty diet
[6] = rimonabant groups 5, 10, 20 mg/day taken together

Cc1c(C(=O)NN2CCCCC2)nn(-c2ccc(Cl)cc2Cl)c1-c1ccc(Cl)cc1 [rimonabant, N-piperidino-5-(4-chlorophenyl)-1-(2,4-dichlorophenyl)-4-methylpyrazole-3-carboxamide]
HDLc/total cholesterol (obese mice; [4]): 62.2 ± 0.5 %
LDLc/total cholesterol (obese mice; [4]): 5.5 ± 0.3 %
glucose blood level (obese mice; [5]): decrease
insulin blood level (obese mice; [5]): decrease
leptin blood level (obese mice; [5]): decrease
Improvement in metabolic syndrome (obese patients [1]; 5 mg/d rimonabant): 42%
Weight loss (obese patients [1]; 5 mg/d rimonabant): 3.4 * kg
Decrease in triglycerides ≧10% (obese patients [1]; 5 mg/d rimonabant): 36%
Increase in HDLc ≧10% (obese patients [1]; 5 mg/d rimonabant): 43%
Blood glucose level (obese patients [1]; 5 mg/d rimonabant): −0.09 ** mmol/1
Improvement in metabolic syndrome (obese patients [1]; 10 mg/d rimonabant): 39%
Weight loss (obese patients [1]; 10 mg/d rimonabant): 3.7 * kg
Decrease in triglycerides ≧10% (obese patients [1]; 10 mg/d rimonabant): 34%
Increase in HDLc ≧10% (obese patients [1]; 10 mg/d rimonabant): 45%
Blood glucose level (obese patients [1]; 10 mg/d rimonabant): −0.02 *** mmol/1
Improvement in metabolic syndrome (obese patients [1]; 20 mg/d rimonabant): 21%
Weight loss (obese patients [1]; 20 mg/d rimonabant): 4.5 * kg
Decrease in triglycerides ≧10% (obese patients [1]; 20 mg/d rimonabant): 51%
Increase in HDLc ≧10% (obese patients [1]; 20 mg/d rimonabant): 44%
Blood glucose level (obese patients [1]; 20 mg/d rimonabant): +0.03 mmol/1
blood glucose level (overall statement) (obese patients [1]; [6]): remains stable or decreases discretely
metabolic syndrome as defined by ATP III (overall statement) (obese patients [1]; [6]): tendency for the metabolic syndrome to improve
triglycerides (overall statement) (obese patients [1]; [6]): tendency for the triglycerides to decrease
adiponectin, starting level ([2]; rimonabant 20 mg group, before the year of treatment): 5.8 ± 2.7 µg/mL
adiponectin at the end of the year of treatment ([2]; rimonabant 20 mg, 12 months): 8.2 ± 4.2 µg/mL
increase in the HDLc level exceeding that of the placebo group ([2]; rimonabant 20 mg, 12 months, low-calorie diet): 11.3±1.7%
decrease in the triglyceride level exceeding that of the placebo group ([2]; rimonabant 20 mg, 12 months, low-calorie diet, p<0.001): 12.2±3.7
weight loss greater than that observed in the placebo group ([2]; rimonabant 20 mg, 12 months, low-calorie diet, p≦0.001): 6.3 ± 0.5 kg
patients who stopped showing the metabolic syndrome characteristics ([2]; rimonabant 20 mg, 12 months, p<0.001 vs placebo): 60.2%
Liver weight/body weight ratio (obese fa/fa Zucker rats): 3.86 ± 0.07 %
decrease of the increase in the liver weight/body weight ratio seen in obese/vehicle rats (obese fa/fa Zucker rats): 80%
fat overload in the liver (histopathological analysis) (obese fa/fa Zucker rats): disappearance of this fat overload
body weight of obese patients (obese patients [3]): reduces the body weight of obese patients
food intake (obese patients [3]): acts on food intake from a quantitative and qualitative point of view
